Measurements: PubChem BioAssay (NCI)
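96-well plates; 48 h exposure; 5 concentrations. Endpoints by linear interpolation between flanking doses. Not reached: highest tested concentration assigned. TGI is the concentration that stops growth completely.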

Legend:
Assay in all cases: growth of human tumour cells (NCI), 48 h
IGROV1 ovarian = test system: IGROV1 ovarian
SF-295 CNS = test system: SF-295 CNS
A549 NSCLC = test system: A549 NSCLC
MDA-MB-231 breast = test system: MDA-MB-231 breast
SW-620 colon = test system: SW-620 colon
HL-60(TB) leukemia = test system: HL-60(TB) leukemia
MOLT-4 leukemia = test system: MOLT-4 leukemia
U251 CNS = test system: U251 CNS
A498 renal = test system: A498 renal
MDA-MB-435 = test system: MDA-MB-435
NCI-H226 lung = test system: NCI-H226 lung
T-47D breast = test system: T-47D breast
LOX IMVI melanoma = test system: LOX IMVI melanoma
HOP-62 NSCLC = test system: HOP-62 NSCLC
RXF 393 renal = test system: RXF 393 renal
OVCAR-8 ovarian = test system: OVCAR-8 ovarian
SR leukemia = test system: SR leukemia
HS 578T breast = test system: HS 578T breast
NCI-H23 lung = test system: NCI-H23 lung
MDA-N = test system: MDA-N

| SMILES | TGI (IGROV1 ovarian) | TGI (SF-295 CNS) | TGI (A549 NSCLC) | TGI (MDA-MB-231 breast) | TGI (SW-620 colon) | TGI (HL-60(TB) leukemia) | TGI (MOLT-4 leukemia) | TGI (U251 CNS) | TGI (A498 renal) | TGI (MDA-MB-435) | TGI (NCI-H226 lung) | TGI (T-47D breast) | TGI (LOX IMVI melanoma) | TGI (HOP-62 NSCLC) | TGI (RXF 393 renal) | TGI (OVCAR-8 ovarian) | TGI (SR leukemia) | TGI (HS 578T breast) | TGI (NCI-H23 lung) | TGI (MDA-N) |
| --- | --- | --- | --- | --- | --- | --- | --- | --- | --- | --- | --- | --- | --- | --- | --- | --- | --- | --- | --- | --- |
| Nc1cc2c3c(cccc3c1)C(=O)N(c1ccc(OCCN3CCCCC3)cc1)C2=O | 34.4 µM | 33.4 µM | 28.2 µM | 31.5 µM | 48.5 µM | 26.5 µM | 35.7 µM | 61.6 µM | 31.9 µM | 55.7 µM | 42.1 µM | 46.6 µM | 35.4 µM | 31.8 µM | 35.7 µM | 36.4 µM | 36.6 µM | 63.4 µM | 30.2 µM | 41.2 µM |
| CCCCCC(O)[C@H]1C(=O)C[C@@H](O[Si](C)(C)C(C)(C)C)[C@@H]1/C=C/CCOCc1ccccc1 (some centres undefined) | 25.6 µM | 20.3 µM | > 60.3 µM | 61.8 µM | 41.4 µM | > 100 µM | > 29.7 µM | 29.6 µM | 39.9 µM | 22.4 µM | 27.5 µM | 40.1 µM | 43 µM | 34.1 µM | 31.3 µM | 28.4 µM | > 62.9 µM | 26.4 µM | 33.3 µM | > 63.9 µM |
| Cc1cccc(N=Nc2c(C)nn(C(=O)CC(=O)Nc3ccccc3)c2C)c1 | > 100 µM | > 100 µM | > 100 µM | > 100 µM | > 100 µM | > 100 µM | > 100 µM | > 100 µM | > 100 µM | > 100 µM | > 100 µM | > 100 µM | > 100 µM | > 100 µM | > 100 µM | > 100 µM | > 100 µM | > 100 µM | > 100 µM | > 100 µM |
| CCOC(=O)c1sc2nc(SC)nc3c2c1N=CN3c1ccccc1Cl | > 100 µM | > 100 µM | > 100 µM | > 100 µM | > 100 µM | > 100 µM | > 100 µM | > 100 µM | 56.3 µM | > 100 µM | > 100 µM | > 100 µM | > 100 µM | 32.6 µM | 68.6 µM | > 100 µM | 89.9 µM | 52.3 µM | > 100 µM | > 100 µM |
| Cc1cn(C2CC(O)C(Cn3cc(Cn4ncc(=O)[nH]c4=O)nn3)O2)c(=O)[nH]c1=O (centres undefined) | > 100 µM | > 100 µM | > 100 µM | > 100 µM | > 100 µM | > 100 µM | > 100 µM | > 100 µM | > 100 µM | > 100 µM | > 100 µM | > 100 µM | > 100 µM | > 100 µM | > 100 µM | > 100 µM | > 100 µM | > 100 µM | > 100 µM | > 100 µM |
| N#CC1=C(S)N(C2OC(CO)C(O)C(O)C2O)C(c2ccccc2)=CC1c1ccccc1 (centres undefined) | > 100 µM | > 100 µM | > 100 µM | > 100 µM | > 100 µM | > 100 µM | 86.8 µM | > 100 µM | > 100 µM | > 100 µM | > 100 µM | 96.7 µM | 86.6 µM | > 100 µM | 92.7 µM | > 100 µM | > 100 µM | > 100 µM | > 100 µM | > 100 µM |
| O=C1CC(CC(O)C(O)C(O)CO)CC(=O)N1 (centres undefined) | > 100 µM | > 100 µM | > 100 µM | > 100 µM | > 100 µM | > 100 µM | > 100 µM | > 100 µM | > 100 µM | > 100 µM | > 100 µM | > 100 µM | > 100 µM | > 100 µM | > 100 µM | > 100 µM | > 100 µM | > 100 µM | > 100 µM | > 100 µM |
| COC(=O)[C@@H]1C[C@H]([Se]c2ccccc2)CN1S(=O)(=O)c1ccc(C)cc1 | > 100 µM | > 100 µM | > 100 µM | > 100 µM | > 100 µM | > 100 µM | > 100 µM | > 100 µM | > 100 µM | > 100 µM | > 100 µM | > 100 µM | > 100 µM | > 100 µM | > 100 µM | > 100 µM | > 100 µM | > 100 µM | > 100 µM | > 100 µM |
| CCc1ccc(Nc2cc(=O)[nH]c(SCc3ccccc3)n2)cc1 | > 100 µM | > 100 µM | > 100 µM | > 100 µM | > 100 µM | > 100 µM | > 100 µM |  | > 100 µM | > 100 µM | > 100 µM | > 100 µM | > 100 µM | > 100 µM | > 100 µM | > 100 µM | > 100 µM | > 100 µM | > 100 µM | > 100 µM |
| N#Cc1c(-c2ccccc2)c(N=Nc2ccc(F)cc2)c(=O)n2c1[nH]c1ccccc12 | 35.7 µM | 24.8 µM | 19.3 µM | > 50.9 µM | > 100 µM | 3.68 µM | 7.78 µM | 18.1 µM | 41 µM | > 100 µM | 39.1 µM | 40.8 µM | > 100 µM | 29.3 µM | 44.6 µM | 24 µM | 55.8 µM | 31.4 µM | > 75.7 µM | 52.9 µM |
| CC(=O)CCNc1ccc(-c2cc(-c3ccc(N(C)C)cc3)nc3ccc4ccccc4c23)cc1 | > 100 µM | > 100 µM | > 100 µM | > 100 µM | > 100 µM | 84.4 µM | > 100 µM | > 100 µM | > 100 µM | > 100 µM | > 78.9 µM | > 100 µM | > 100 µM | > 100 µM | > 100 µM | > 100 µM | > 100 µM | > 100 µM | > 100 µM | > 100 µM |
